Common to all, as to conditions: Table 8
Assay [1] deals with P. aeruginosa. It is filed as cell-based, Pseudomonas aeruginosa. The protocol:
(§1) Bacterial growth conditions. LB or Mueller Hinton II cation-adjusted broth (MHB II, BBL 212322) was prepared according to manufacturer's instructions and supplemented with arabinose at 0.02% for overnight growth or at indicated concentrations in the description of the figures. Bacterial cultures were grown at 37° C. When appropriate, media was supplemented with kanamycin (50 μg/mL), carbenicillin (50 μg/mL), chloramphenicol (12.5 or 25 μg/mL), hygromycin (200 μg/mL), and/or gentamicin (10 μg/mL).
(§2) Peptide sensitivity and MIC assays. Lyophilized peptides (Smartox Biotechnology, CPC Scientific. ABclonal) were solubilized to 10 mM in Tris buffer, pH 8, prior to making a 2-fold dilution series in MHBII cation adjusted broth with highest final assay concentration of 400-800 μM. Bacteria were grown to log phase and added to final OD600˜0.001. The final EDTA concentration was 0.5 mM for E. coli strains and 0.125 mM for USA300. The final volume of 10 μL/well in a 384 well black, clear bottom plate (Corning) was spun <1 min at <250×g and then incubated at 37° C. After 4 h, an equal volume (10 μL) of BacTiter-Glo™ (Promega) was added to each well and luminescence was read after 5 min on an EnVision plate reader (PerkinElmer). To measure the minimal inhibitory concentrations (MICs), bacteria from fresh overnight plates or log phase cultures were diluted with or without EDTA and peptides as described above to final OD600˜0.0002. Plates were incubated at 37° C. for 20 h before measuring OD600 with an EnVision plate reader.

The subject of assay [2] is A. baumannii. The format is cell-based, Acinetobacter baumannii. As to the method:
as §1, §2

Assay [3] has as its system K. pneumoniae. It is filed as cell-based, Klebsiella pneumoniae. The protocol:
as §1, §2

Assay [4] has as its system E. coli BW25113. It is filed as cell-based, Escherichia coli. The gist of the method:
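For MIC, bacteria (final OD600 ~0.0002) were incubated with 2-fold peptide dilutions (top 400–800 μM) in cation-adjusted MHB II with or without EDTA, 20 h at 37 °C, read by OD600. EDTA was 0.5 mM for E. coli and 0.125 mM for USA300. The growth-inhibition assay used log-phase cells at OD600 ~0.001, 4 h at 37 °C, BacTiter-Glo luminescence.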

≈ marks a conversion by molar mass, not a printed value. Square brackets hold non-standard residues; d marks the D form. Peptide text beside a SMILES is read from it. Bip = N[C@@H](Cc1ccc(-c2ccccc2)cc1)C(=O)O; hPhe = N[C@@H](CCc1ccccc1)C(=O)O; hSer = N[C@@H](CCO)C(=O)O; Dap = NC[C@H](N)C(=O)O A value given as a limit tells only on which side of the number the result lay.

As to `CSCC[C@H](NC(=O)[C@@H]1CCCN1C(=O)[C@H](Cc1ccc(O)cc1)NC(C)=O)C(=O)N[C@@H](CN)C(=O)N[C@@H](C)C(=O)N[C@@H](CCCNC(=N)N)C(=O)N[C@@H](CCCNC(=N)N)C(=O)N[C@@H](Cc1ccc(-c2ccccc2)cc1)C(=O)N[C@@H](CC(C)C)C(=O)N[C@@H](CCC(=O)O)C(=O)N[C@@H](CCCCN)C(=O)N[C@@H](Cc1c[nH]c2ccccc12)C(=O)NCC(=O)N[C@@H](CC(C)C)C(=O)N[C@@H](CC(C)C)C(=O)N[C@@H](CCCNC(=N)N)C(N)=O` [compound 80] (Ac-YPM[Dap]ARR[Bip]LEKWGLLR-NH2), the “MIC R. aeruginosa” value in assay [1] is 25.0 µM (≈ 53.5 µg/mL). Further, the “MIC A. baumannii” value in assay [2] stood at 12.5 µM (≈ 26.7 µg/mL). In addition, in assay [3], the “MIC K. pneumoniae” value was determined as 12.5 µM (≈ 26.7 µg/mL). The “MIC E. coli BW25113” value in assay [4] turned out to be 12.5 µM (≈ 26.7 µg/mL).

As to `CSCC[C@H](NC(=O)[C@H](CN)NC(=O)[C@H](CCSC)NC(=O)[C@@H]1CCCN1C(=O)[C@H](Cc1ccc(O)cc1)NC(C)=O)C(=O)N[C@@H](CCCNC(=N)N)C(=O)N[C@@H](CCCNC(=N)N)C(=O)N[C@@H](Cc1ccc(-c2ccccc2)cc1)C(=O)N[C@@H](CC(C)C)C(=O)N[C@@H](CCC(=O)O)C(=O)N[C@@H](CCCCN)C(=O)N[C@@H](Cc1c[nH]c2ccccc12)C(=O)NCC(=O)N[C@@H](CC(C)C)C(=O)N[C@@H](CC(C)C)C(=O)N[C@@H](CCCNC(=N)N)C(N)=O` [compound 82] (Ac-YPM[Dap]MRR[Bip]LEKWGLLR-NH2), the “MIC R. aeruginosa” value in assay [1] came to 50.0 µM (≈ 110 µg/mL). Further, in assay [2], the “MIC A. baumannii” value was determined as 12.5 µM (≈ 27.5 µg/mL). The “MIC K. pneumoniae” value in assay [3] stood at 50.0 µM (≈ 110 µg/mL). Besides, in assay [4], the “MIC E. coli BW25113” value is 100.0 µM (≈ 220 µg/mL).

Take `CC(=O)N[C@@H](Cc1ccc(O)cc1)C(=O)N1CCC[C@H]1C(=O)N[C@@H](CCc1ccccc1)C(=O)N[C@H](C(=O)N[C@@H](C)C(=O)N[C@@H](CCCNC(=N)N)C(=O)N[C@@H](CCCNC(=N)N)C(=O)N[C@@H](Cc1ccccc1)C(=O)N[C@@H](CC(C)C)C(=O)N[C@@H](CCC(=O)O)C(=O)N[C@@H](CCCCN)C(=O)N[C@@H](Cc1c[nH]c2ccccc12)C(=O)NCC(=O)N[C@@H](CC(C)C)C(=O)N[C@@H](CC(C)C)C(=O)N[C@@H](CCCNC(=N)N)C(N)=O)[C@@H](C)O` [compound 91] (Ac-YP[hPhe]TARRFLEKWGLLR-NH2): in assay [1], the “MIC R. aeruginosa” value was more than 400.0 µM. In addition, the “MIC A. baumannii” value in assay [2] amounted to 50.0 µM (≈ 105 µg/mL). Also, the “MIC K. pneumoniae” value in assay [3] was more than 400.0 µM. Further, the “MIC E. coli BW25113” value in assay [4] was found to be 50.0 µM (≈ 105 µg/mL).

On to Ac-RPMTARRWLEKRGL-NH2 [compound 202], for which, in assay [1], the “MIC R. aeruginosa” value is more than 400.0 µM. In assay [2], the “MIC A. baumannii” value is more than 400.0 µM. Further, in assay [3], the “MIC K. pneumoniae” value was more than 400.0 µM. Further, the “MIC E. coli BW25113” value in assay [4] was determined as 50.0 µM.

`CSCC[C@H](NC(=O)[C@@H]1CCCN1C(=O)[C@H](CCCNC(=N)N)NC(C)=O)C(=O)N[C@H](C(=O)N[C@@H](C)C(=O)N[C@@H](CCCNC(=N)N)C(=O)N[C@@H](CCCNC(=N)N)C(=O)N[C@@H](Cc1c[nH]c2ccccc12)C(=O)N[C@@H](CC(C)C)C(=O)N[C@@H](CCO)C(=O)N[C@@H](CCCCN)C(=O)N[C@@H](CCCNC(=N)N)C(=O)NCC(=O)N[C@@H](CC(C)C)C(N)=O)[C@@H](C)O` [compound 211] (Ac-RPMTARRWL[hSer]KRGL-NH2): in assay [1], the “MIC R. aeruginosa” value is more than 400.0 µM. In assay [2], the “MIC A. baumannii” value was more than 400.0 µM. The “MIC K. pneumoniae” value in assay [3] is more than 400.0 µM. Besides, the “MIC E. coli BW25113” value in assay [4] turned out to be 50.0 µM (≈ 89.2 µg/mL).

For Ac-YPMTARRFLQKWGLLR-NH2 [compound 72], in assay [1], the “MIC R. aeruginosa” value came out at 800 µM. Moreover, the “MIC A. baumannii” value in assay [2] turned out to be 50 µM. In addition, in assay [3], the “MIC K. pneumoniae” value was found to be 400 µM. The “MIC E. coli BW25113” value in assay [4] worked out at 400 µM.

Values taken from patent publication US20220135622A1, “ANTIBACTERIAL PEPTIDES AND METHODS OF USE” (priority 2019, published 2022).
